{"source": "ChEMBL document CHEMBL3832081", "about": "“DailyMed|setid=caaf1b7f-eaab-4fb6-a955-b7d881038fef | METRONIDAZOLE - metronidazole gel|Sandoz Inc”", "experiment": "Evaluation of pharmacokinetic parameters for metronidazole following topical administration of metronidazole gel USP, 1% to the face of 13 patients with moderate to severe rosacea.", "assay_type": "ADME, organism-based", "parameters": "dose 1 g, route topical", "settings": "human, in vivo, topical or ocular, dosed compound id 31, dosed compound name METRONIDAZOLE, gender male and female, regimen Once daily, study dosing duration 7 days, tissue Plasma"}
{"compound": "Cc1ncc([N+](=O)[O-])n1CCO", "note": "[METRONIDAZOLE]", "values": [{"measurement": "Cmax", "setting": "1 g", "value": 32, "unit": "ng/mL"}, {"measurement": "AUC", "setting": "1 g, read-out: AUC(0-24)", "value": 595, "unit": "ng·h/mL"}, {"measurement": "Tmax", "setting": "dose 1 g, route topical", "value": "6 to 10", "unit": "h"}]}
